Reference: patent US7384931B2, “Constrained compounds as CGRP-receptor antagonists” (Bristol-Myers Squibb Company, priority 2004, dated 2008)
pIC50: −log10 of the molar value.

Key:
CGRP receptor [1] = biological target: T1, CGRP receptor (Homo sapiens, UniProt O60894+Q16602); experiment: CGRP radioligand binding assay ([125I]-CGRP displacement, SK-N-MC homogenate); set-up: endogenous in cells; host or cells: SK-N-MC cells (homogenate/membrane pellet); conditions: displacement of [125I]-CGRP, room temperature 2 h
T1 sequence (Q16602 23-461): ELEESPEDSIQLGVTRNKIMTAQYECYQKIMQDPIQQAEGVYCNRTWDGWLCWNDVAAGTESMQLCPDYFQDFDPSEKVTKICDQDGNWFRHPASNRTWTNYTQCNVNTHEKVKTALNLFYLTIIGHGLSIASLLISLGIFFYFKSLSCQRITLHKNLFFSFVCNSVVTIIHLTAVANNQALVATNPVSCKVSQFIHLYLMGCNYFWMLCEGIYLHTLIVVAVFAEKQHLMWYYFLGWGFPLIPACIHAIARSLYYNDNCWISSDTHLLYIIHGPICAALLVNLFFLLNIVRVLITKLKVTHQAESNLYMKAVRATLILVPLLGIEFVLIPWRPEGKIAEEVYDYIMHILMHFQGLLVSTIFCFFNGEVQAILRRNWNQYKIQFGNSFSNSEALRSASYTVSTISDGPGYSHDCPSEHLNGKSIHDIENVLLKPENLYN
T1 sequence (O60894 27-148): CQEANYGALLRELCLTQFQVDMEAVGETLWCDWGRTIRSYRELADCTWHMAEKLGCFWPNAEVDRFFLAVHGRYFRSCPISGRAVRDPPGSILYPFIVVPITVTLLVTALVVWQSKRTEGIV
How it was run: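 SK-N-MC cell homogenate (5 μg/well) was incubated 2 h at room temperature with [125I]-CGRP (diluted to 60 pM before addition) in 50 mM Tris-Cl pH 7.5, 5 mM MgCl2, 0.005% Triton X-100 plus protease inhibitors. Bound radioactivity was collected by filtration; 1 μM beta-CGRP defined non-specific binding. IC50 is 50% radioligand displacement.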

CGRP receptor [2] = biological target: T1, CGRP receptor; experiment: Cyclic AMP functional antagonism assay in SK-N-MC cells; assay type: cell-based; set-up: SK—N-MC cells that endogenously express the human CGRP receptor; endogenous in cells; host or cells: SK-N-MC cells; conditions: inhibition of 0.3 nM CGRP-induced cyclic AMP formation, 15 min pre-incubation, read-out: cAMP Function IC50
Procedure: Cyclic AMP Functional Antagonism Assay. Antagonism of the compounds of invention was determined by measuring the formation of cyclic AMP (adenosine 3′5′-cyclic monophosphate) in SK—N-MC cells that endogenously express the human CGRP receptor. CGRP receptor complex is coupled with Gs protein and CGRP binding to this complex leads to the cyclic AMP production via Gs—dependent activation of an adenylate cyclase (Juaneda C et al., TiPS, 2000; 21:432-438; incorporated by reference herein). Consequently, CGRP receptor antagonists inhibit CGRP—induced cyclic AMP formation in SK—N-MC cells (Doods H et al., Br J Pharmacol, 2000; 129(3):420-423); incorporated by reference herein). For cyclic AMP measurements SK—N-MC cells were incubated with 0.3 nM CGRP alone or in the presence of various concentrations of the compounds of invention for 30 min at room temperature. Compounds of invention were pre-incubated with SK—N-MC cells for 15 min before the addition of CGRP to allow receptor occupancy (Edvinsson et al., Eur J Pharmacol, 2001, 415:39-44; incorporated by reference herein). Cyclic AMP was extracted using the lysis reagent and its concentration was determined by radioimmunoassay using RPA559 cAMP SPA Direct Screening Assay Kit (Amersham Pharmacia Biotech). IC50 values were calculated using Excel fit.

| Compound | pIC50 (CGRP receptor [1]) | pIC50 (CGRP receptor [2]) |
| --- | --- | --- |
| CC(C)CN1Cc2c(ccc3[nH]ncc23)CC(NC(=O)N2CCC(N3Cc4ccccc4NC3=O)CC2)C1=O (centres unmarked) [Example 24, 4-(2-Oxo-1,4-dihydro-2H-quinazolin-3-yl)-piperidine-1-carboxylic acid (9-isobutyl-8-oxo-3,6,7,8,9,10-hexahydro-2,3,9-triaza-cyclohepta[e]inden-7-yl)-amide] | 7.00 to 8.00 | 7.00 to 8.00 |
| O=C(NC1Cc2ccc3[nH]ncc3c2CN(Cc2ccncc2)C1=O)N1CCC(N2Cc3ccccc3NC2=O)CC1 (centres unmarked) [Example 28, 4-(2-Oxo-1,4-dihydro-2H-quinazolin-3-yl)-piperidine-1-carboxylic acid (8-oxo-9-pyridin-4-ylmethyl-3,6,7,8,9,10-hexahydro-2,3,9-triaza-cyclohepta[e]inden-7-yl)-amide] | 7.00 to 8.00 | 7.00 to 8.00 |
| Cc1cc2c(c3cn[nH]c13)CN(C)C(=O)C(NC(=O)N1CCC(N3Cc4ccccc4NC3=O)CC1)C2 (centres unmarked) [Example 30, 4-(2-Oxo-1,4-dihydro-2H-quinazolin-3-yl)-piperidine-1-carboxylic acid (4,9-dimethyl-8-oxo-3,6,7,8,9,10-hexahydro-2,3,9-triaza-cyclohepta[e]inden-7-yl)-amide] | 7.00 to 8.00 | 7.00 to 8.00 |
| CC(C)(C)CN1Cc2c(ccc3[nH]ncc23)C[C@@H](CC(=O)N2CCC(N3Cc4cccc(F)c4NC3=O)CC2)C1=O [Example 39, (S)-7-(2-(4-(8-Fluoro-2-oxo-1,2-dihydroquinazolin-3(4H)-yl)piperidin-1-yl)-2-oxoethyl)-9-neopentyl-6,7,9,10-tetrahydroazepino[3,4-e]indazol-8(3H)-one] | 7.00 to 8.00 | 7.00 to 8.00 |
| CC(C)(C)CN1Cc2c(cc(Cl)c3[nH]ncc23)C[C@@H](CC(=O)N2CCC(c3cc4cccc(Cl)c4[nH]c3=O)CC2)C1=O [Example 117] | 6.00 to 7.00 |  |
| CC(C)(C)CN1Cc2c(cc(Cl)c3[nH]ncc23)C[C@@H](CC(=O)N2CCC(c3cc4c(F)cccc4[nH]c3=O)CC2)C1=O [Example 118] | 7.00 to 8.00 |  |
| CC(C)(C)CN1Cc2c(cc(Cl)c3[nH]ncc23)C[C@@H](CC(=O)N2CCC(c3cc4ccc(F)nc4[nH]c3=O)CC2)C1=O [Example 119] | < 6.00 |  |
| (7S)-9-Benzyl-7-(2-oxo-2-(4-(2-oxo-1,2,3,4-tetrahydroquinolin-3-yl)piperazin-1-yl)ethyl)-6,7,9,10-tetrahydroazepino[3,4-e]indazol-8(3H)-one [Example 58] | 6.00 to 7.00 |  |

Further lines, results first:

| pIC50 (CGRP receptor [1]) | pIC50 (CGRP receptor [2]) | Compound |
| --- | --- | --- |
| 7.00 to 8.00 | 7.00 to 8.00 | O=C(N[C@@H]1Cc2ccc3[nH]ncc3c2CN(Cc2ccccc2)C1=O)N1CCC(N2Cc3ccccc3NC2=O)CC1 [Example 1, 4-(2-Oxo-1,4-dihydro-2H-quinazolin-3-yl)-piperidine-1-carboxylic acid (9-benzyl-8-oxo-3,6,7,8,9,10-hexahydro-2,3,9-triaza-(R)-cyclohepta[e]inden-7-yl)-amide] |
| 7.00 to 8.00 | 7.00 to 8.00 | CC(C)(C)CN1C(=O)C(CC(=O)N2CCC(N3Cc4ccccc4NC3=O)CC2)Cc2cc3[nH]ncc3cc21 (centres unmarked) [Example 6, 5-Neopentyl-7-(2-oxo-2-(4-(2-oxo-1,2-dihydroquinazolin-3(4H)-yl)piperidin-1-yl)ethyl)-7,8-dihydro-1H-pyrazolo[3,4-g]quinolin-6(5H)-one] |
| 7.00 to 8.00 | 7.00 to 8.00 | C[C@@H](c1ccccc1)N1Cc2c(ccc3[nH]ncc23)C[C@@H](NC(=O)N2CCC(N3Cc4ccccc4NC3=O)CC2)C1=O [Example 10, 4-(2-Oxo-1,4-dihydro-2H-quinazolin-3-yl)-piperidine-1-carboxylic acid [8-oxo-9-(1-(S)-phenyl-ethyl)-3,6,7,8,9,10-hexahydro-2,3,9-triaza-(R)-cyclohepta[e]inden-7-yl]-amide] |
| 7.00 to 8.00 | 7.00 to 8.00 | C[C@H](c1ccccc1)N1Cc2c(ccc3[nH]ncc23)C[C@@H](NC(=O)N2CCC(N3Cc4ccccc4NC3=O)CC2)C1=O [Example 11, 4-(2-Oxo-1,4-dihydro-2H-quinazolin-3-yl)-piperidine-1-carboxylic acid [8-oxo-9-(1-(R)-phenyl-ethyl)-3,6,7,8,9,10-hexahydro-2,3,9-triaza-(R)-cyclohepta[e]inden-7-yl]-amide] |
| 8.00 to 10.00 | 8.00 to 10.00 | O=C(N[C@@H]1Cc2cc(Cl)c3[nH]ncc3c2CN(Cc2ccccc2)C1=O)N1CCC(N2Cc3ccccc3NC2=O)CC1 [Example 12, 4-(2-Oxo-1,4-dihydro-2H-quinazolin-3-yl)-piperidine-1-carboxylic acid (9-benzyl-4-chloro-8-oxo-3,6,7,8,9,10-hexahydro-2,3,9-triaza-(R)-cyclohepta[e]inden-7-yl)-amide] |
| 8.00 to 10.00 | 8.00 to 10.00 | CC(C)(C)CCN1Cc2c(ccc3[nH]ncc23)C[C@@H](NC(=O)N2CCC(N3Cc4ccccc4NC3=O)CC2)C1=O [Example 16, 4-(2-Oxo-1,4-dihydro-2H-quinazolin-3-yl)-piperidine-1-carboxylic acid [9-(3,3-dimethyl-butyl)-8-oxo-3,6,7,8,9,10-hexahydro-2,3,9-triaza-(R)-cyclohepta[e]inden-7-yl]-amide] |
| 8.00 to 10.00 | 8.00 to 10.00 | CC(C)(C)CN1Cc2c(cc(Cl)c3[nH]ncc23)C[C@@H](NC(=O)N2CCC(N3Cc4ccccc4NC3=O)CC2)C1=O [Example 20, 4-(2-Oxo-1,4-dihydro-2H-quinazolin-3-yl)-piperidine-1-carboxylic acid [4-chloro-9-(2,2-dimethyl-propyl)-8-oxo-3,6,7,8,9,10-hexahydro-2,3,9-triaza-(R)-cyclohepta[e]inden-7-yl]-amide] |
| 8.00 to 10.00 | 8.00 to 10.00 | CC(C)(C)CN1Cc2c(cc(Cl)c3[nH]ncc23)C[C@@H](CC(=O)N2CCC(N3Cc4ccccc4NC3=O)CC2)C1=O [Example 21, 4-Chloro-9-(2,2-dimethyl-propyl)-7-(S)-{2-oxo-2-[4-(2-oxo-1,4-dihydro-2H-quinazolin-3-yl)-piperidin-1-yl]-ethyl}-6,7,9,10-tetrahydro-3H-2,3,9-triaza-cyclohepta[e]inden-8-one] |
| 8.00 to 10.00 | 8.00 to 10.00 | CC(C)(C)CN1Cc2c(ccc3[nH]ncc23)CC(NC(=O)N2CCC(N3Cc4ccccc4NC3=O)CC2)C1=O (centres unmarked) [Example 22, 4-(2-Oxo-1,4-dihydro-2H-quinazolin-3-yl)-piperidine-1-carboxylic acid [9-(2,2-dimethyl-propyl)-8-oxo-3,6,7,8,9,10-hexahydro-2,3,9-triaza-cyclohepta[e]inden-7-yl]-amide] |
| 8.00 to 10.00 | 7.00 to 8.00 | O=C(N[C@@H]1Cc2cc3cn[nH]c3cc2CN(Cc2ccccc2)C1=O)N1CCC(N2Cc3ccccc3NC2=O)CC1 [Example 37, (R)-N-(8-Benzyl-7-oxo-1,5,6,7,8,9-hexahydroazepino[4,3-f]indazol-6-yl)-4-(2-oxo-1,2-dihydroquinazolin-3(4H)-yl)piperidine-1-carboxamide] |
| 8.00 to 10.00 | 8.00 to 10.00 | CC(C)(C)CN1Cc2c(cc(Cl)c3[nH]ncc23)C[C@@H](CC(=O)N2CCC(N3Cc4cccc(F)c4NC3=O)CC2)C1=O [Example 40, (S)-4-Chloro-7-(2-(4-(8-fluoro-2-oxo-1,2-dihydroquinazolin-3(4H)-yl)piperidin-1-yl)-2-oxoethyl)-9-neopentyl-6,7,9,10-tetrahydroazepino[3,4-e]indazol-8(3H)-one] |
| 8.00 to 10.00 |  | CC(C)(C)CN1Cc2c(cc(Cl)c3[nH]ncc23)C[C@@H](CC(=O)N2CCC(c3cc4ccc(F)cc4[nH]c3=O)CC2)C1=O [Example 120] |
